# Assay results taken from patent US12011433B2 (UNIVERSITÁ DEGLI STUDI DI BARI “ALDO MORO”, priority 2016, dated 2024).
# Where two headings read alike, the source gives them in different places.
# Legend:
# [1] = GALMOF0 metabolic stability, incubation with rat liver microsomes; type: in vitro ADME
# Method: GALMOF0 metabolic stability was determined through its incubation with rat liver microsomes and monitoring the disappearance of its chromatogram peak within 30 min.
# The in vitro test was carried out in the presence of rat liver S9 fraction (Tebu-bio, Milan, Italy).
# Briefly, GALMOF0 (10 μM) in 100 mM of phosphate buffer (pH=7.4) was mixed with the NADPH regeneration system to a final concentration of 1.3 mM NADP^+, 3.3 mM glucose 6-phosphate and 0.4 U/ml glucose 6-phosphate dihydrogenase and 3.3 mM MgCl2. The experiment started with the addition of rat microsomes (1 mg/ml) that were incubated for 30 min at 37° C. The reaction was blocked by adding an equal volume of cold CH3CN. The samples were centrifuged at 4,600 rpm for 15 min at 4° C. The supernatant was separated and the organic phase analysed by HPLC in the same conditions used for the samples of the “chemical stability study”.
# The residual GALMOF0 percentage after 30 min was calculated according the following equation: Residual GALMOF0(%) at 30 min=Cmicr+NADPH/Cmicr×100 where Cmicr+NADPH is the GALMOF0 concentration after the incubation with the microsomes and the NADPH regeneration system (FIG. 8); Cmicr is the GALMOF0 concentration after the incubation with only the microsomes (FIG. 9).
# [2] = GALMOF0 chemical stability in buffers by HPLC; type: physicochemical; conditions: pH 1, 3, 7.3 and 8, 37° C., till 60 min
# Method: HPLC analyses were performed to determine the chemical stability and the purity grade of GALMOF0 as a representative compound of the set.
# Aminica column was used, CH3CN/10 mM Tris-HCl (pH=8) (15:85) was used as mobile phase, T=40° C.; λ=254 nm.
# 200 μL of 2.5 mg/mL di GALMOF0 in CH3CN were added to 1800 μL of a buffer (pH=1, 3, 7.3 and 8). Each sample was kept stirred at 37° C. Buffer with pH=1 and 3, obtained with 0.1N HCl and 50 mM HEPES, was selected to simulate the chemical stability at gastric level, whereas pH=7.3 and 8, obtained by 50 mM TRIS-HCl, simulated its stability in the blood and gut, respectively.
# At 15, 30, 60 min and 48 h, 300 μL of the sample were withdraw, diluted with 300 μL of CH3CN (final concentration=[…]) and tested by HPLC.
# Caco-2 cells = experiment: Caco-2 monolayer efflux assay, Apparent Permeability (Papp), with or without GLUT-1 inhibitor phloretin; type: in vitro ADME, Human
# Method: (§1) In a monolayer efflux assay, the Apparent Permeability (Papp) in both basolateral to apical [Papp(B→A)] and apical to basolateral [Papp(A→B)] directions was determined for each compound (FIG. 2). Human colonic adenocarcinoma cell line (Caco-2) presents a facilitated transport system at the apical and basolateral surface. Caco-2 cells express high levels of GLUT-1 that are localized to the basolateral membrane and transport glucose to the serosal side.
# (§2) The Papp(B→A) flux of each compound alone or in the presence of phloretin, a GLUT-1 inhibitor, has been determined. Since GLUT-1 is express in the basolateral compartment a high B→A flux means that the transport is GLUT-1 mediated because B→A flux represents the active transport.
# (§3) A→B flux, which represents the passive transport, has also been determined for each compound (Table 2).
# GLUT-1 = experiment: as above; type: in vitro ADME, Human; conditions: human
# Method: as §1, §2, §3
# COX-2 [3] = biological target: COX-2 (Homo sapiens, UniProt P35354); experiment: colorimetric COX Inhibitor screening Assay (peroxidase component, oxidized TMPD at 590 nm); type: biochemical
# Chain of COX-2 (Homo sapiens, UniProt P35354) (P35354 18-604 limits assumed): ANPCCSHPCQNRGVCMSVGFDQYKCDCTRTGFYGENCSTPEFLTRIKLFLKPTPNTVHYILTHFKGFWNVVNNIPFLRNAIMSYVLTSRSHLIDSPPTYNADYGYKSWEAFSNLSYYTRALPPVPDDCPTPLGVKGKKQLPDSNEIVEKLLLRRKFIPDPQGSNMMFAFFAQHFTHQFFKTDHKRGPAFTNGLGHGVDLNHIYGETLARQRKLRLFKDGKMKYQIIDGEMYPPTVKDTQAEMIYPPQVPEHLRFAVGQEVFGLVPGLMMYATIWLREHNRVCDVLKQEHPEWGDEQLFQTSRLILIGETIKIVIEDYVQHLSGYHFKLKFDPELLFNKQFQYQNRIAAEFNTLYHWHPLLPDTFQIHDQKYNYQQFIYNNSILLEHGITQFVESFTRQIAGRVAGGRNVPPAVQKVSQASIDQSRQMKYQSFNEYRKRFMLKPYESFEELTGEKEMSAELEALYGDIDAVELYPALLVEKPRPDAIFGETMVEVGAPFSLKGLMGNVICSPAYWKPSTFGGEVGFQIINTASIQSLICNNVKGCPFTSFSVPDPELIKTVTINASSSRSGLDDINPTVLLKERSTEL
# Method: Human cyclooxygenase inhibitory activity was determined by a colorimetric COX Inhibitor screening Assay which measures the peroxidase component of the cyclooxygenases, monitoring the appearance of oxidized N,N,N′,N′-tetramethyl-p-phenylenediamine (TMPD) at 590 nm.
# COX-1 = COX-1 (Mus musculus (Mouse), UniProt P22437); experiment: COX-1 expression in LPS-treated BV2 microglial cells, western blotting; type: cell-based; conditions: for COX-1 expression reduction: LPS-activated BV2 cells
# Method: (§4) Cells were then incubated for different times at 37° C. with LPS, as pro-inflammatory stimulus. Experiments included cells grown in medium alone (control).
# (§5) The tissue and cell culture lysates were vortexed for 15-20 s and, then, centrifuged at 12,800×g for 20 min. The protein concentration in the supernatant was spectrophotometrically determined by Bradford's protein assay (Bradford, 1976). Protein samples were diluted with sample buffer (0.5 M Tris-HCl pH=6.8, 10% glycerol, 10% (w/v) SDS, 5% 2-mercaptoethanol, 0.05% (w/v) bromophenol blue) and then boiled for 3 min. Proteins (25 μg/lane) and prestained standards (BioRad Laboratories, Hercules, CA, USA) were loaded on 7% or 12% SDS precast polyacrylamide gels (BioRad Laboratories).
# After electrophoresis, the resolved proteins were transferred from the gel to nitrocellulose membranes. A blotting buffer [20 mMTris/150 mM glycine, pH=8.0, 20% (v/v) methanol] was used for gel and membrane saturation and blotting. Then, membranes were incubated in the dark with 1 μg/mL mouse monoclonal antibody (MoAb) anti-COX-1 and rabbit polyclonal Ab anti-COX-2 (1:1000) (both from AbCam, Cambridge, UK), rabbit polyclonal Ab anti p-IkB-α (1:200), mouse polyclonal Ab anti β-actin (1:500) (all from Santa Cruz Biotechnology), mouse MoAb anti-glial fibrillary acidic protein (GFAP) (1:200) and mouse mAb anti-ionized calcium-binding adapter molecule-1 (Iba-1) (1:200) (both from Merck Millipore) overnight at 4° C. The membranes were washed with 0.1% Tween 20-PBS (for 20 min, 3 times) and then incubated with the secondary antibody diluted 1:2000 for 60 min. Bands were visualized by chemiluminescence detection (Invitrogen, Milan, Italy). The β-actin level was used as a protein loading control. For tissue analysis, obtained bands were normalized to the level of β-actin performed for each cerebral area tested. For cell cultures the bands were normalized to the β-actin level in each experimental condition.
# BV2 microglial cells = experiment: BV2 microglial cell viability, MTT reduction assay; type: cell-based; conditions: 24 h, P6 0.5 and 1 μM, mofezolac 0.1 and 0.5 μM, alone or with LPS
# Method: as §4
# Cell viability of microglial cells was quantified using the MTT reduction assay. The cells (8×10^3/well) were grown in 96-well plates (Becton Dickinson Labware) in complete medium and treated with different concentration of COX inhibitors, in presence or absence of LPS. Untreated cells were used as a control. A PBS 1× solution of MTT (5 mg/mL) was prepared and added to the cell medium at a final concentration of 0.5 mg/mL. Cells were incubated for 4 h at 37° C. and 5% CO2 to allow the MTT metabolism. The formazan crystals formed (from MTT) into the cells were solubilized with DMSO (Sigma-Aldrich). The levels of MTT formazan were determined measuring the optical density at λ=560 nm and subtracting the background (λ=670 nm) with a Victor Multiplate Reader (Wallac). Optical density was directly correlated to cell quantity.
# COX-2 [4] = biological target: COX-2 (Mus musculus (Mouse), UniProt Q05769); experiment: COX-2 expression in LPS-treated BV2 microglial cells, western blotting; type: cell-based; conditions: LPS-stimulated BV2 cells
# Method: as §4, §5
# After electrophoresis, the resolved proteins were transferred from the gel to nitrocellulose membranes. A blotting buffer [20 mMTris/150 mM glycine, pH=8.0, 20% (v/v) methanol] was used for gel and membrane saturation and blotting. […]
# PGE2 = PGE2 release in LPS-stimulated BV2 microglial cells, competitive binding immunoassay; type: cell-based; conditions: for PGE2 release (ng/ml) at 48 h: LPS-stimulated BV2 cells; for PGE2 production reduction: LPS-treated BV2 cells
# Method: Microglial cells were cultured in 6-well plates at a density of 3×10^6 cells/well. […] The cultures were maintained at 37° C. for 24 and 48 h in a humidified air containing a 5% CO2. PGE2 levels were determined in the supernatant using a competitive binding immunoassay (Cayman Chemical, Ann Arbor, MI, USA) following the manufacturer's instructions. Unstimulated cells were included as a control. PGE2 amount determination in the brain was performed in the tissue extracts, according to the manufacturer's instructions. The optical density was measured at λ=405-420 nm with precision microplate reader and the amount of PGE2 (ng/mL) was calculated using a PGE2 standard curve.
smiles,measurement,setting,value
"COc1ccc(-c2noc(CC(=O)OCC3OC(O)C(O)C(O)C3O)c2-c2ccc(OC)cc2)cc1 [GALMOF0, ((2S,3R,4S,6R)-3,4,5,6-tetrahydroxytetrahydro-2H-pyrano-2-yl-) methyl-(2-(3,4-di(4-metoxyphenyl)isoxazol-5-yl)acetate]","Cmicr, concentration after the incubation","[1]; incubated with only the microsomes, 30 min",70.51 mAU*s
same,"Cmicr+NADPH, concentration after the incubation","[1]; incubated with the microsomes and the NADPH regeneration system, 30 min",68.02 mAU*s
same,residual GALMOF0 after 30 min of treatment with microsomes,"[1]; rat liver microsomes 1 mg/ml, NADPH regeneration system, 10 μM, 37° C.",96%
same,"chemical stability, chromatogram profile",[2],no variation of the chromatogram profile was observed
same,"Papp B → A, Phloretin",Caco-2 cells; in the presence of 100 mM Phloretin,61 ×10⁻⁶ cm/s
same,reduction of the basolateral to apical flux (Papp B→A) in the presence of phloretin,Caco-2 cells; phloretin vs alone,30%
same,Papp A→B,"GLUT-1; compound alone, read-out: Papp A → B",38 ×10⁻⁶ cm/s
same,Papp B→A,"GLUT-1; compound alone, read-out: Papp B → A",87.5 ×10⁻⁶ cm/s
same,Papp A→B,"GLUT-1; with phloretin (GLUT-1 inhibitor), in Phloretin, read-out: Papp A → B, Phloretin",36.8 ×10⁻⁶ cm/s
same,Papp B→A,"GLUT-1; with phloretin (GLUT-1 inhibitor), in Phloretin, read-out: Papp B → A, Phloretin",61 ×10⁻⁶ cm/s
same,inhibition at 50 µM,"COX-2 [3]; at 50 μM, the highest concentration tested",87%
same,IC50,COX-2 [3]; human cyclooxygenase,3.1 µM
"Cc1onc(-c2ccc(Cl)o2)c1-c1ccccc1 [Compound P6, 3-(5-chlorofuran-2-yl)-5-methyl-4-phenylisoxazole]",COX-1 expression levels,"COX-1; BV2 cells, 48 h of incubation with LPS, 1 h pre-treated",significantly reduced
same,COX-1 expression reduction,COX-1; 0.5 μM,67%
same,COX-1 expression reduction,COX-1; 1.0 μM,79%
same,cell toxicity,BV2 microglial cells,No cell toxicity
same,COX-2 protein levels,COX-2 [4],unaffected
same,PGE2 release (ng/ml) at 48 h,PGE2; 0.5 μM inhibitor + LPS,0.21 ng/mL
same,PGE2 release (ng/ml) at 48 h,PGE2; 1 μM inhibitor + LPS,0.12 ng/mL
same,PGE2 production reduction,PGE2; at 0.5 μM as printed in the text,78%
same,PGE2 production reduction,PGE2; at 1 μM as printed in the text,88%
